# Test results published in patent US20100323968A1, “Process of inhibiting cell death in injured cartilage” (The Scripps Research Institute, priority 2001, published 2010).
# “Also recorded” adds a separate entry of the source. Where a SMILES comes first, the peptide text is derived from it. The star is where a group is joined. Cbz = O=C(OCc1ccccc1)*; CH2F = FC*
# Tests used:
# [1] = tested on: bovine cartilage explants; test: Apoptosis (TUNEL) in mechanically injured bovine cartilage explants; assay type: cell-based; details: for Mean (±SD) apoptosis rates, Loaded + Agent: bovine femoral condyle cartilage, loaded at 23 MPa, in vitro, n = 8 to 10
# Excerpt: Cartilage explants. Macroscopically normal weight bearing portions of freshly slaughtered skeletally mature bovine femoral condyles were selected from animals between 2 and 6 years of age (Animal Technologies, Austin, Tex.). Only joints without visible signs of degeneration or aging were selected. Using sterile techniques, full thickness cartilage was separated from underlying subchondral bone with a scalpel and 5 mm diameter cylindrical explants, ranging from 1 to 1.8 mm in height, cored out using a dermal punch (Acuderm, Inc., Ft. Lauderdale, Fla.). Explants taken from adjacent sites were used as matched controls for each group in each experiment to minimize variation in cartilage response due to differences in thickness and location within the joint. Each explant was weighed and allowed to stabilize at 37° C. and 5% CO2 for 48 hours in 1 ml of Dulbecco's modified Eagle's medium (DMEM) supplemented with 10% fetal bovine serum (FBS), L-glutamine, antibiotics and 50 μg/ml ascorbic acid.
# Full thickness bovine cartilage explants, 5 mm in diameter, were subjected to a single static mechanical load of 7, 14 or 23 MPa for 500 msec. This model simulates traumatic cartilage injury and the loads were similar in magnitude to those generated during traumatic joint injury. Glycosaminoglycan (GAG) release and percent apoptotic cells were measured. The effect of a pan-caspase inhibitor, z-VAD.fmk [benzyloxycarbonyl-Val-Ala-Asp (OMe) fluoromethylketone] in preventing chondrocyte apoptosis was determined. z-VAD.fmk is a fluoromethylketone irreversible inhibitor of a broad spectrum of caspases. […] The percentage of apoptotic chondrocytes was related to load intensity and correlated with the level of GAG release from cartilage. […] This identifies a new approach to limit traumatic cartilage injury and the subsequent development of secondary osteoarthritis.
# Loading apparatus and procedure. A model to simulate acute joint injury was used in this study based on injury models reported by Repo and Finlay, and Jeffrey et al. (Repo, et al. (1977) J. Bone Joint Surg. Am. 59A, 1068-1076, Jeffrey, et al. (1995) Arch. Biochem. Biophys. 322, 87-96). Although these reported models impacted cartilage using drop towers, a more controlled method was chosen for applying and maintaining stress or strain as follows. An Instron 8511 servohydraulic testing machine (Instron Corporation, Boston, Mass.) was used to mechanically load the cartilage explants. Explants were transported from the incubator to the Instron machine in sealed cell culture dishes. The explant was centralized on a stainless steel loading platform and a radially unconfined compressive load was applied through an impermeable stainless steel platen. A small preload (0.1 MPa) was applied for 2 minutes, followed by a single 500 msec trapezoidal loading waveform at the selected stress. The stress rose from 0.1 MPa to the chosen stress level in 100 msec and was maintained for 500 msec. Three stress levels were chosen to represent acute joint injury. 7 MPa has been reported to be the upper limit of physiologic stress developed during activities of daily living (von Eisenhart, et al. (1999) J. Orthop. Res. 17, 532-539). 23 MPa is the stress above which the underlying bone has been reported to fracture (Haut (1989) J. Orthop. Res. 7, 272-280). Control explants were placed in the loading apparatus but not loaded. […] Stress and strain data were recorded during the test. […]
# [2] = tested on: bovine cartilage explants; test: Glycosaminoglycan release assay (DMMB) in injured bovine cartilage explants; assay type: cell-based; details: bovine explants after mechanical injury, z-VAD.fmk 100 μM, 48 hours
# Procedure: Glycosaminoglycan release assay. To estimate GAG depletion and release, the concentration of sulfated glycosaminoglycans was measured using […] (DMMB) as a monitor of spectrophotometric changes which occur during the formation of the sulfated GAG dye complex (Farndale, et al. (1986) Biochim. Biophys. Acts. 883, 173-177, Goldberg, et al. (1993) Agents Actions 39 Spec No, C163-C165). For GAG content measurement, samples were digested in papain and collagenase and the concentration of sulfated GAG measured using DMMB. To generate a standard curve, chondroitin-6-sulfate (Sigma, St. Louis, Mo.) was used at concentrations between 1 and 200 μg/ml. GAG released in media was normalized to the pooled mean GAG content of Control (uninjured) cartilage explants and expressed as a percentage of total GAG content.
# Inhibition of apoptosis. To determine whether apoptosis could be prevented by caspase inhibition, 12 explants were loaded at 23 MPa (High Load) and cultured for 48 hours. […] Percent apoptosis and GAG release in media was measured as described above.
# Release of sulfated glycosaminoglycans (GAG) was analyzed as a measure of the extent of damage sustained by the explant. […] GAG depletion was assessed by dimethylene blue binding assays of the culture supernatants and this correlated with the reduced of safranin O staining of the cartilage sections.
# human cartilage explants = test: Apoptosis (TUNEL) in mechanically injured human cartilage explants; assay type: cell-based; details: for Mean (±SD) apoptosis rates, Loaded + Agent: human cartilage (femoral condyles and tibial plateaus), in vitro, n = 8 to 10
# Excerpt: Cartilage explants. Macroscopically normal tibial and femoral articular surfaces were selected from human cadaver donors between 18 and 45 years of age. Using sterile techniques, full thickness cartilage was separated from underlying subchondral bone with a scalpel. 5 mm diameter cylindrical explants, ranging from 2 to 2.8 mm in thickness, cored out using a dermal punch (Acuderm, Inc., Ft. Lauderdale, Fla.). Explants taken from adjacent sites were used as matched controls for each group in each experiment to minimize variation in cartilage response due to differences in thickness and location within the joint. Each explant was weighed and allowed to stabilize at 37° C. and 5% CO2 for 48 hours in Dulbecco's modified Eagle's medium (DMEM) supplemented with 5% fetal bovine serum (FBS), L-glutamine, antibiotics and […] ascorbic acid.
# Loading apparatus and procedure. An Instron 8511 servohydraulic testing machine (Instron Corporation, Boston, Mass.) was used to mechanically load the cartilage explants. Explants were transported from the incubator to the Instron machine in sealed cell culture dishes. The total time duration of loading for a single experiment varied from approximately 1 to 2 hours depending on the number of samples. During this time, explants were maintained at 37° C. The explant was centralized on a stainless steel loading platform and a radially unconfined compressive load was applied through an impermeable stainless steel platen. […] Stress and strain data were recorded during the test.
# Caspase inhibition. […] Percentage apoptosis was measured at 96 hours post-injury in three groups (control, loaded, and loaded with z-VAD.fmk) with ten explants each in two separate experiments.
# Apoptosis detection. […] This was detected by immunohistochemical staining with M30 (Cytodeath, Boehringer Mannheim, Eugene, Oreg.), a monoclonal antibody that recognizes the neo-epitope exposed in early apoptosis.
# Chondrocyte apoptosis after mechanical injury to human cartilage. […] GAG release and percentage of cells undergoing apoptosis were measured at 96 hours after injury. […]
# [3] = tested on: femoral and tibial articular cartilage; test: Intraarticular injection of caspase inhibitor in rabbits with anterior cruciate ligament transection (ACLT); assay type: in vivo, New Zealand White rabbits; details: rabbit bilateral ACLT, 25 μg intra-articular three times per week for six weeks
# Procedure: Intraarticular injection of caspase inhibitor in rabbits with ligament transection. A pilot study was performed to assess feasibility and efficacy of caspase inhibition in vivo. Eight New Zealand White rabbits were divided into anterior cruciate ligament transection (ACLT) and ACLT+ caspase inhibitor (CI) groups. Both groups underwent bilateral ACLT. The ACLT+CI group was treated with intra-articular injections of 25 μg of z-VAD.fmk three times per week for six weeks while the control group received saline injections. Rabbits were euthanised at six weeks and femoral and tibial articular cartilage evaluated by India ink staining and histologic Mankin grading after Safranin-O stain.
# Histologically, more knees from the ACLT group had higher Mankin scores. 87% (⅞) ACLT knees had grades 5 or higher, while 50% ( 4/8) ACLT+CI knees were graded 5 or higher. The India ink stained femoral condyles were photographed and digital images were used to quantify the surface areas of the lesions.
Compound,"Mean (±SD) apoptosis rates, Loaded + Agent [1]",GAG release / GAG depletion [2],GAG release / GAG depletion ([2]; listed as pan-caspase inhibitor),"Mean (±SD) apoptosis rates, Loaded + Agent (human cartilage explants; loaded at 23 MPa)","mean reduction in apoptotic rates (human cartilage explants; human explants cultured in z-VAD.fmk immediately after injury, 30% strain, 96 hours post-injury) [%]","chondrocyte apoptosis after mechanical injury (result in words) ([1]; bovine explants, z-VAD.fmk 100 μM, 23 MPa, 48 hours)","reduction in the apoptosis rate ([1]; high and intermediate load groups, bovine explants) [%]","reduction of the size of the cartilage lesions (surface area, India ink stained femoral condyles) [3] [%]","knees with histologic Mankin grades 5 or higher ([3]; 4/8 knees, ACLT saline group 87%) [%]","cartilage lesions under India ink examination (area, grade) ([3]; ACLT group grade III to IVa, listed as caspase inhibitor)","Mean (±SD) apoptosis rates, Loaded + Agent (human cartilage explants; loaded at 30% strain)"
C[C@@H]1C[C@H]2[C@@H]3CCC4=CC(=O)C=C[C@]4(C)[C@@]3(F)[C@@H](O)C[C@]2(C)[C@@]1(O)C(=O)CO [Dexameth.],47 (±11.2) %,,,,,,,,,,
"COC(=O)CC(NC(=O)C(C)NC(=O)C(NC(=O)OCc1ccccc1)C(C)C)C(=O)CF (stereo not drawn) [z-VAD.fmk, benzyloxycarbonyl-Val-Ala-Asp (OMe) fluoromethylketone] (Cbz-Val-Ala-Asp(OMe)-CH2F; configuration not given here)",31 (±13.9) %,normalization of the GAG depletion,reduction in GAG release,34 (±10.2) %,50,reduced chondrocyte apoptosis,> 50,~80,50,lesions that were smaller in area; also recorded: ranged from II (minimum fibrillation),
IGF-1: agent IGF-1 tested for pharmacologic modulation of apoptosis after cartilage injury in vitro,42 (±10.9) %,,,,,,,,,,10 (±6.2) %
